Data reported in ChEMBL document CHEMBL1127045 (J Med Chem, 1993).

Key:
[1] = biological target: D(2) dopamine receptor (Rattus norvegicus, UniProt P61169); assay: Binding affinity against dopamine receptor D2 from rat corpus striatum by using radioligand [3H]sulpiride
[2] = biological target: 5-HT2A receptor (Rattus norvegicus); assay: Binding affinity against 5-hydroxytryptamine 2 receptor from rat cortical synaptosomal membrane using radioligand [3H]ketanserin.
[3] = biological target: Serotonin 2 (5-HT2) receptor (Mus musculus) (UniProt Q02152+P34968+P35363); assay: Effective dose through peroral route for in vivo inhibition against 5-hydroxytryptamine 2 receptor in male CF-1 mice by using radioligand [3H]ketanserin; type: organism-based
Sequence of Serotonin 2 (5-HT2) receptor (Mus musculus) (P34968 whole entry, looked up): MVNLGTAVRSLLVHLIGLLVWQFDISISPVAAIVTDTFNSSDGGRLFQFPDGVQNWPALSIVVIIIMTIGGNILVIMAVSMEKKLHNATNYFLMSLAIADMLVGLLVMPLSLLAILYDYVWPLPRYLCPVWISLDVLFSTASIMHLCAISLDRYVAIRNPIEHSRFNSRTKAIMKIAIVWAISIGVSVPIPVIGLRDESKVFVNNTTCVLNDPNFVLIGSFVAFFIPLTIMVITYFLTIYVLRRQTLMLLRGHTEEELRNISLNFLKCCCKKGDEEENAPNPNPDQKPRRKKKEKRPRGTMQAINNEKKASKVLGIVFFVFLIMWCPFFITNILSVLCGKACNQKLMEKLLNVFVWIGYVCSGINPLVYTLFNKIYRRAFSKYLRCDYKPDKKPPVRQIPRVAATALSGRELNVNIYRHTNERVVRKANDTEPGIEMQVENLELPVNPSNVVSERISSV
Sequence of Serotonin 2 (5-HT2) receptor (Mus musculus) (P35363 whole entry, looked up): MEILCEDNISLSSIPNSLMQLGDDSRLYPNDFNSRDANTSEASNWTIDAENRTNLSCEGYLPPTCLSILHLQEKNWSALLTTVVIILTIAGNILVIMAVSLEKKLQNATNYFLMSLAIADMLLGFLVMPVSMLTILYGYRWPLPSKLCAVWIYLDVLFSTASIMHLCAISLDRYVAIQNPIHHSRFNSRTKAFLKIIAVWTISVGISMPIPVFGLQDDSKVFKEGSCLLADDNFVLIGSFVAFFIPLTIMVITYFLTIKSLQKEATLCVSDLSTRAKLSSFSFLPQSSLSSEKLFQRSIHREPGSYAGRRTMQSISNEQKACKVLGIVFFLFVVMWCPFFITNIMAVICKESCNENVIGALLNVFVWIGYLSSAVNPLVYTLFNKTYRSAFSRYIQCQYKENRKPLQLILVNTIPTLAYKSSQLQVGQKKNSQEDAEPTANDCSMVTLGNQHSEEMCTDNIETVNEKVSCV
Sequence of Serotonin 2 (5-HT2) receptor (Mus musculus) (Q02152 whole entry, looked up): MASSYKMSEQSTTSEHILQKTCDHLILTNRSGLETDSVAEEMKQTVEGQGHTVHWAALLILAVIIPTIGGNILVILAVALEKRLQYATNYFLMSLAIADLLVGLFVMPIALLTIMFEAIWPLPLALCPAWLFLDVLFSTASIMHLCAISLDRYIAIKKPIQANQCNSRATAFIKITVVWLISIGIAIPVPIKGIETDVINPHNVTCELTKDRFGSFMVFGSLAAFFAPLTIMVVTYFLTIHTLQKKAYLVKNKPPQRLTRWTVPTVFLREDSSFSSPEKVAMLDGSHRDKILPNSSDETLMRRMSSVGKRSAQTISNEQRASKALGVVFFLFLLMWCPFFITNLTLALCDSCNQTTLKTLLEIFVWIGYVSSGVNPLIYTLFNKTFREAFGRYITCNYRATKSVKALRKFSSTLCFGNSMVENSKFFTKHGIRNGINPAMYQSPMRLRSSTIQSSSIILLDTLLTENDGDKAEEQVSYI

Sequence of D(2) dopamine receptor (P61169 whole entry): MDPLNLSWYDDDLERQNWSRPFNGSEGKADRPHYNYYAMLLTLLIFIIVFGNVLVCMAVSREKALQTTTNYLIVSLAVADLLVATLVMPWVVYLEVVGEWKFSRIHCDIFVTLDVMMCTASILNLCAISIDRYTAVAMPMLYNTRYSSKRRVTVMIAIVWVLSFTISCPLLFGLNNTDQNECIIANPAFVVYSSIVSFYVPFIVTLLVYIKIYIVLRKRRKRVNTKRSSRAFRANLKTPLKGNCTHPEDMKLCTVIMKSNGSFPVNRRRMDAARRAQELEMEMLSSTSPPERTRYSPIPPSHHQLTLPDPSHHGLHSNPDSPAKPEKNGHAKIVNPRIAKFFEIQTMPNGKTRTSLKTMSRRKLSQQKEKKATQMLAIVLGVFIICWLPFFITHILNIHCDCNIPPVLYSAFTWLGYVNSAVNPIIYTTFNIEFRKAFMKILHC

| SMILES | Ki [1] | Ki [2] | ED50 [3] | inhibition [3] |
| --- | --- | --- | --- | --- |
| Fc1ccc2c(CCCCN3C4CCCC3c3c([nH]c5cccc(F)c35)C4)noc2c1 (stereo unspecified) | 131 nM | 133 nM | – | – |
| O=S1(=O)c2cccc3cccc(c23)N1CCCCN1C2CCC1c1c([nH]c3ccc(F)cc13)C2 (stereo unspecified) | 1010 nM | 1245 nM | – | – |
| Fc1ccc(CCCCN2C3CCCC2c2c([nH]c4ccc(F)cc24)C3)cc1 (stereo unspecified) | 1960 nM | 143 nM | – | – |
| O=C(CCCN1C2CCC1c1c([nH]c3ccc(F)cc13)C2)c1ccco1 (stereo unspecified) | 643 nM | 264 nM | – | – |
| O=C(CCCCN1C2CCCC1c1c([nH]c3ccccc13)C2)c1ccccc1 (stereo unspecified) | 43.5 nM | 20.9 nM | – | – |
| O=C(CCCN1C2CCC1c1c([nH]c3ccccc13)C2)c1cccs1 (stereo unspecified) | 550 nM | – | – | – |
| O=C(CCCCN1C2CCC1c1c([nH]c3ccccc13)C2)c1ccc(F)cc1 (stereo unspecified) | – | – | 7.32 mg/kg | – |
| c1ccc(CCCCN2C3CCCC2c2c([nH]c4ccccc24)C3)cc1 (stereo unspecified) | 670 nM | 103 nM | – | – |
| c1ccc2c3c([nH]c2c1)CC1CCC3N1 (stereo unspecified) | > 10000 nM | – | – | – |
| c1ccc2c(c1)ccn2CCCCN1C2CCC1c1c([nH]c3ccccc13)C2 (stereo unspecified) | 635 nM | 284 nM | – | – |
| O=C(CCCN1C2CCC1c1c([nH]c3ccccc13)C2)c1ccccc1 (stereo unspecified) | 540 nM | 6.55 nM | – | 12% |
| O=C1c2ccccc2C(=O)N1CCCCN1C2CCC1c1c([nH]c3ccccc13)C2 (stereo unspecified) | 2630 nM | 879 nM | – | – |
| c1ccc2c(CCCCN3C4CCC3c3c([nH]c5ccccc35)C4)c[nH]c2c1 (stereo unspecified) | 853 nM | 329 nM | – | – |
| Cc1nc2sccn2c(=O)c1CCN1CCC(=C(c2ccc(F)cc2)c2ccc(F)cc2)CC1 [RITANSERIN] | 93 nM | – | 0.14 mg/kg | – |
| Fc1ccc(CCCCN2C3CCCC2c2c([nH]c4ccccc24)C3)cc1 (stereo unspecified) | 973 nM | 24.5 nM | – | – |
| O=C(CCCCN1C2CCC1c1c([nH]c3ccc(F)cc13)C2)c1ccccc1 (stereo unspecified) | 2.77 nM | 2.98 nM | 0.65 mg/kg | – |
| c1ccc2c(CCCN3C4CCC3c3c([nH]c5ccccc35)C4)c[nH]c2c1 (stereo unspecified) | 1160 nM | – | – | – |
| O=C(CCCN1C2CCCC1c1c([nH]c3ccc(F)cc13)C2)c1ccc(F)cc1 (stereo unspecified) | – | – | 5.89 mg/kg | – |
| O=C(CCCN1C2CCC1c1c(n(-c3ccccc3)c3ccccc13)C2)c1ccc(F)cc1 (stereo unspecified) | – | 330 nM | – | – |
| Cn1c2c(c3ccccc31)C1CCC(C2)N1CCCC(=O)c1ccc(F)cc1 (stereo unspecified) | 287 nM | 2.83 nM | – | – |
| O=C(CCCCN1C2CCCC1c1c([nH]c3ccc(F)cc13)C2)c1ccccc1 (stereo unspecified) | 72 nM | 59.8 nM | – | – |
| O=C(CCCN1C2CCC1c1c([nH]c3ccccc13)C2)c1ccc(F)cc1 (stereo unspecified) | 275 nM | – | 20.9 mg/kg | – |
| Fc1ccc2c(CCCN3C4CCCC3c3c([nH]c5ccc(F)cc35)C4)noc2c1 (stereo unspecified) | 248 nM | 13.4 nM | – | – |
| O=C(CCCN1C2CCCC1c1c([nH]c3ccccc13)C2)c1ccc(F)cc1 (stereo unspecified) | – | 0.85 nM | 16.3 mg/kg | – |
| O=C(CCCN1C2CCC1c1c([nH]c3ccc(F)cc13)C2)c1ccc(F)cc1 (stereo unspecified) | – | – | 41.1 mg/kg | – |
| Fc1ccc2[nH]c3c(c2c1)C1CCCC(C3)N1CCCCc1ccccc1 (stereo unspecified) | – | 172 nM | – | – |
| c1ccc2sc(CCCCN3C4CCC3c3c([nH]c5ccccc35)C4)cc2c1 (stereo unspecified) | 416 nM | 610 nM | – | – |
| O=C1CC2CCC(C1)N2CCCC(=O)c1ccc(F)cc1 | 1.3 nM | 533 nM | – | – |
| O=C(CCCCN1C2CCC1c1c([nH]c3ccc(F)cc13)C2)c1ccc(F)cc1 (stereo unspecified) | 34.1 nM | – | – | – |
